Molecules are shown by their SMILES. Structures can show the parent of a compound that is named as a salt. Where two headings read alike, the source gives them in different places.

Assay [1] has as its target T1, SARS-CoV-2 PLpro (nsp3 1564–1878) (Severe acute respiratory syndrome coronavirus 2, UniProt P0DTD1). The assay can be described thus: biochemical. More on the design: FRET-quenched peptide (Pro3) cleavage by PLpro, 10 min pre-incubation, slope over 20 min, normalised to no-compound control. As to conditions: read-out: % of control remaining.
Assay [2] concerns the target T1, SARS-CoV-2 PLpro (nsp3 1564–1878). Kind of assay: biochemical. More on the design: FRET-quenched peptide (Pro3) cleavage by PLpro, 10 min pre-incubation, slope over 20 min, normalised to no-compound control. As to conditions: read-out: % of control remaining. This is another data set of the same source.

Consider `O=c1[nH]oc2c1CCNC2` [THIP hydrochloride], for which, in assay [1] (Well no.=1328, low concentration screen), the remaining activity at 1.25 µM is 96.3%. Further, the remaining activity at 3.75 µM in assay [2] (Well no.=1328, high concentration screen) came to 97.2%.

As for `Cc1ccccc1CN1C(=O)C2=C(CCN(Cc3ccccc3)C2)N2CCN=C12` [TIC10], the remaining activity at 1.25 µM in assay [1] was determined as 97.7%. For the same molecule, in assay [2], the remaining activity at 3.75 µM is 96.2%.

As to `Cc1cc(COc2nc(N)nc3ccn(Cc4ccccn4)c23)no1` [TLR7 agonist 2], the remaining activity at 1.25 µM in assay [1] (Well no.=8227, low concentration screen) amounted to 106%. For the same molecule, the remaining activity at 3.75 µM in assay [2] (Well no.=8227, high concentration screen) amounted to 103%.

On to `CCCCc1nc2c(N)nc3ccccc3c2n1Cc1ccc(CN)cc1` [TLR7/8 agonist 1 (dihydrochloride)], for which the remaining activity at 1.25 µM in assay [1] (Well no.=8259, low concentration screen) is 102%. Also, the remaining activity at 3.75 µM in assay [2] (Well no.=8259, high concentration screen) stood at 99.6%.

For `O=C(COCC(=O)Nc1ccc(Cl)cc1C(=O)O)Nc1cccc(-c2ccoc2)c1` [TM5441], the remaining activity at 1.25 µM in assay [1] (Well no.=6540, low concentration screen) stood at 109%. In addition, in assay [2] (Well no.=6540, high concentration screen), the remaining activity at 3.75 µM came out at 105%.

Turning to `CCN(CC)CCCCCCCCOC(=O)c1cc(OC)c(OC)c(OC)c1` [TMB-8 hydrochloride], the remaining activity at 1.25 µM in assay [1] (Well no.=101, low concentration screen) was 104%. Besides, in assay [2] (Well no.=101, high concentration screen), the remaining activity at 3.75 µM was determined as 104%.

In the case of `CP(=O)(O)C1=CCNCC1` [TPMPA], the remaining activity at 1.25 µM in assay [1] (Well no.=1474, low concentration screen) was determined as 100%. For the same molecule, the remaining activity at 3.75 µM in assay [2] (Well no.=1474, high concentration screen) was found to be 102%.

Consider `COc1cccc(OC)c1-c1ccc(C[C@H](NC(=O)c2c(Cl)cccc2Cl)C(=O)O)cc1` [TR-14035], for which, in assay [1] (Well no.=8514, low concentration screen), the remaining activity at 1.25 µM amounted to 96.3%. Moreover, the remaining activity at 3.75 µM in assay [2] (Well no.=8514, high concentration screen) turned out to be 93.8%.

Take `Clc1ccccc1C(c1ccccc1)(c1ccccc1)n1cccn1` [TRAM-34]: the remaining activity at 1.25 µM in assay [1] (Well no.=4707, low concentration screen) was determined as 107%. Further, the remaining activity at 3.75 µM in assay [2] (Well no.=4707, high concentration screen) was 103%.

As to `CC(C)C[C@H](NC(=O)[C@H](CC(C)C)NC(=O)[C@H](Cc1ccccc1)NC(=O)[C@@H](N)CO)C(=O)N[C@@H](CCCN=C(N)N)C(=O)N[C@@H](CC(N)=O)C(=O)O` [TRAP-6], the remaining activity at 1.25 µM came out at 101% in assay [1] (Well no.=6278, low concentration screen) and 98.5% in assay [1] (Well no.=8364, low concentration screen). For the same molecule, the remaining activity at 3.75 µM in assay [2] (Well no.=6278, high concentration screen) is 103%; in assay [2] (Well no.=8364, high concentration screen), 97.2%.

On to `COC(=O)[C@H](Cc1c[nH]c2ccccc12)N(Cc1ccccc1)Cc1ccccc1` [TRPM8 antagonist 2], for which the remaining activity at 1.25 µM in assay [1] (Well no.=7732, low concentration screen) is 95.3%. The remaining activity at 3.75 µM in assay [2] (Well no.=7732, high concentration screen) came to 97.5%.

Turning to `Cc1[nH]c(/C=C2\C(=O)Nc3ccccc32)c(C)c1CCC(=O)O` [TSU-68 (SU6668)], the remaining activity at 1.25 µM in assay [1] (Well no.=4899, low concentration screen) was determined as 99.4%. The remaining activity at 3.75 µM in assay [2] (Well no.=4899, high concentration screen) worked out at 95.8%.

For `C/C(=C\c1ccc(C(=O)O)cc1)c1ccc2c(c1)C(C)(C)CCC2(C)C` [TTNPB], the remaining activity at 1.25 µM in assay [1] (Well no.=1429, low concentration screen) was found to be 97.8%; in assay [1] (Well no.=4436, low concentration screen), 93%. Besides, the remaining activity at 3.75 µM in assay [2] (Well no.=1429, high concentration screen) came to 99.8%; in assay [2] (Well no.=4436, high concentration screen) it was 100%.

Regarding `C#CCN[C@@H]1CCc2ccccc21` [TVP1022], the remaining activity at 1.25 µM in assay [1] (Well no.=5527, low concentration screen) was 101%. Besides, in assay [2] (Well no.=5527, high concentration screen), the remaining activity at 3.75 µM stood at 112%.

On to `Nc1cccc(-c2cc3c(Oc4cccc(O)c4)ncnc3[nH]2)c1` [TWS119], for which, in assay [1] (Well no.=4612, low concentration screen), the remaining activity at 1.25 µM came to 100%. Further, the remaining activity at 3.75 µM in assay [2] (Well no.=4612, high concentration screen) came out at 99.7%.

On to `Cc1cc(C=C2C(=O)C=CC2=O)cc(C)c1O` [TX-1918], for which, in assay [1] (Well no.=2677, low concentration screen), the remaining activity at 1.25 µM was 96.7%. In assay [2] (Well no.=2677, high concentration screen), the remaining activity at 3.75 µM amounted to 98.1%.

As for `CC(C)(C)C(=O)C(=Nc1ccc(Cl)cc1)NNc1ccc(Cl)cc1` [TY-52156], the remaining activity at 1.25 µM in assay [1] (Well no.=7819, low concentration screen) turned out to be 105%. For the same molecule, in assay [2] (Well no.=7819, high concentration screen), the remaining activity at 3.75 µM is 104%.

For `C=CC[C@@H]1/C=C(\C)C[C@H](C)C[C@H](OC)[C@H]2O[C@@](O)(C(=O)C(=O)N3CCCC[C@H]3C(=O)O[C@H](/C(C)=C/[C@@H]3CC[C@@H](O)[C@H](OC)C3)[C@H](C)[C@@H](O)CC1=O)[C@H](C)C[C@@H]2OC` [Tacrolimus (monohydrate)], the remaining activity at 1.25 µM is 96.8% in assay [1] (Well no.=6306, low concentration screen) and 104% in assay [1] (Well no.=7308, low concentration screen). Also, the remaining activity at 3.75 µM worked out at 93.9% in assay [2] (Well no.=6306, high concentration screen) and 107% in assay [2] (Well no.=7308, high concentration screen).

As for `CN1CC(=O)N2[C@H](c3ccc4c(c3)OCO4)c3[nH]c4ccccc4c3C[C@@H]2C1=O` [Tadalafil], the remaining activity at 1.25 µM in assay [1] (Well no.=8188, low concentration screen) stood at 95%. For the same molecule, the remaining activity at 3.75 µM in assay [2] (Well no.=8188, high concentration screen) turned out to be 95.9%.

For `CC(=O)N1N=C(c2ccc(N)cc2)c2cc3c(cc2C[C@H]1C)OCO3` [Talampanel], the remaining activity at 1.25 µM in assay [1] (Well no.=5791, low concentration screen) came out at 97.9%; in assay [1] (Well no.=6496, low concentration screen), 96.3%. Also, the remaining activity at 3.75 µM in assay [2] (Well no.=5791, high concentration screen) was 97.1%; in assay [2] (Well no.=6496, high concentration screen), 99.6%.

As for `C[C@@H]1CN(Cc2ccc(F)cc2)[C@@H](C)CN1C(=O)c1cc2c(C(=O)C(=O)N(C)C)cn(C)c2cc1Cl` [Talmapimod], the remaining activity at 1.25 µM in assay [1] (Well no.=7304, low concentration screen) stood at 99.8%. For the same molecule, the remaining activity at 3.75 µM in assay [2] (Well no.=7304, high concentration screen) amounted to 91.9%.

On to `CC[C@H](NC(=O)c1c(O)c(-c2ccccc2)nc2ccccc12)c1ccccc1` [Talnetant], for which the remaining activity at 1.25 µM in assay [1] (Well no.=5814, low concentration screen) amounted to 97.3%; in assay [1] (Well no.=8479, low concentration screen), 104%. The remaining activity at 3.75 µM is 97.8% in assay [2] (Well no.=5814, high concentration screen) and 100% in assay [2] (Well no.=8479, high concentration screen).

On to `CC1(C)CCC(C)(C)c2cc(NC(=O)c3ccc(C(=O)O)cc3)ccc21` [Tamibarotene], for which the remaining activity at 1.25 µM in assay [1] (Well no.=8108, low concentration screen) is 97.6%. Further, the remaining activity at 3.75 µM in assay [2] (Well no.=8108, high concentration screen) came to 101%.

Take `Nc1nc(-n2cccn2)nc(-n2cccn2)c1Br` [Taminadenant]: the remaining activity at 1.25 µM in assay [1] (Well no.=8565, low concentration screen) worked out at 99.5%. In assay [2] (Well no.=8565, high concentration screen), the remaining activity at 3.75 µM stood at 90.5%.

In the case of `CC/C(=C(\c1ccccc1)c1ccc(OCCN(C)C)cc1)c1ccccc1` [Tamoxifen citrate], the remaining activity at 1.25 µM in assay [1] (Well no.=1184, low concentration screen) was found to be 97.1%. In assay [2] (Well no.=1184, high concentration screen), the remaining activity at 3.75 µM was found to be 99.3%.

For `CC/C(=C(\c1ccccc1)c1ccc(OCCN(C)C)cc1)c1ccccc1` [Tamoxifen], the remaining activity at 1.25 µM in assay [1] (Well no.=2240, low concentration screen) was found to be 90.7%. For the same molecule, in assay [2] (Well no.=2240, high concentration screen), the remaining activity at 3.75 µM amounted to 93.3%.

Consider `CCOc1ccccc1OCCN[C@H](C)Cc1ccc(OC)c(S(N)(=O)=O)c1` [Tamsulosin], for which the remaining activity at 1.25 µM in assay [1] (Well no.=2295, low concentration screen) was 95%; in assay [1] (Well no.=7386, low concentration screen), 98.7%. In addition, the remaining activity at 3.75 µM in assay [2] (Well no.=2295, high concentration screen) is 95.1%; in assay [2] (Well no.=7386, high concentration screen), 94.5%.

Regarding `COc1cc2c(N3CCN(C(=O)Nc4ccc(OC(C)C)cc4)CC3)ncnc2cc1OCCCN1CCCCC1` [Tandutinib], the remaining activity at 1.25 µM in assay [1] (Well no.=2851, low concentration screen) was 104%. In assay [2] (Well no.=2851, high concentration screen), the remaining activity at 3.75 µM was determined as 104%.

On to `C=CCNC1=C2C[C@@H](C)C[C@H](OC)[C@H](O)[C@@H](C)/C=C(\C)[C@H](OC(N)=O)[C@@H](OC)/C=C\C=C(/C)C(=O)NC(=CC1=O)C2=O` [Tanespimycin (17-AAG)], for which, in assay [1] (Well no.=8932, low concentration screen), the remaining activity at 1.25 µM was 88%. In assay [2] (Well no.=8932, high concentration screen), the remaining activity at 3.75 µM was found to be 84.1%.

The values are drawn from publication PMC8286840, “Identifying SARS-CoV-2 antiviral compounds by screening for small molecule inhibitors of Nsp3 papain-like protease” (Biochemical Journal, 2021).
